Values of other authors as cited in patent US20060024740A1 (priority 2002, published 2006).

How the values were obtained:
Tapesia acuformis = system: Tapesia acuformis; design: key: S = Sensitive; R = Resistant
Tapesia yallundae = system: Tapesia yallundae; design: key: S = Sensitive; R = Resistant

SMILES	Fungicide Sensitivity (Tapesia acuformis)	Fungicide Sensitivity (Tapesia yallundae)
COC(=O)Nc1nc2ccccc2[nH]1 [Carbendazim, carbendazim]	S and R	R
Cc1cc(C2CC2)nc(Nc2ccccc2)n1 [Cyprodinil]	S	S
CCCN(CCOc1c(Cl)cc(Cl)cc1Cl)C(=O)n1ccnc1 [Prochloraz]	S and R	R and S
CC(C)(C)C(O)C(Oc1ccc(Cl)cc1)n1cncn1 (centres unmarked) [Triadimenol, triadimenol]	R	R and S
